Values of other authors in patent US20050169991A1, “Sustained release torsemide dosage forms” (Penwest Pharmaceuticals Co., priority 2003, published 2005).

Conditions: in vivo

Cc1cccc(Nc2ccncc2S(=O)(=O)NC(=O)NC(C)C)c1 [Torsemide]
half-life: 6 h
